Among the data in patent publication US20250376458A1, “COMPOUNDS AND METHODS FOR YAP/TEAD MODULATION AND INDICATIONS THEREFOR” (OPNA BIO SA, priority 2023, published 2025) are IC50 values, retold here.

The subject of this test is TEAD-dependent transcription. The experiment in a line: TEAD-dependent transcription cell-based luciferase reporter assay (MSTO-211H+12XGTIIC). As to conditions: MSTO-211H+12XGTIIC cell line, 24 hours compound incubation, luminescence normalized to cell viability fluorescence signal, read-out: MSTO-211H GMean IC50 (uM) Cell Assay Reporter Cell Variant: TEAD. The arrangement: species or system human. The source says:
Determine Inhibitor Activity Against TEAD-Dependent Transcription in a Cell-Based Reporter Assay
The human mesothelioma cell line MSTO-211H was stably transfected with a pGL4.21 plasmid containing a synthetic promoter with 12 copies of the GTIIC TEAD response element that drives the expression of a luciferase reporter gene i using Lipofectamine transfection reagent (Thermo Fisher). Transfected cells were selected using puromycin and single cell clones expressing this construct (referred to as MSTO-211H+12XGTIIC) were generated by limiting dilution. MSTO-211H cells was characterized by genetic alterations in key components of the Hippo pathway^2, resulting in up-regulation of YAP/TEAD-mediated transcription. […] To evaluate TEAD inhibitors, the MSTO-211H+12XGTIIC cell line was seeded in a 96-well plate in 50 μL of culture media at 1×10^4 cells per well and incubated at 37° C. overnight. Serial dilutions of compounds (in total volume of 50 μL of culture media) were added to the cells and incubated at 37° C. for 24 hours. Each plate included cells treated with DMSO as high controls and cells treated with 20 μM of the reference compound K-975 (a known TEAD inhibitor)^3 as low controls. Cell viability was assayed by the addition of 25 μL of CellTiter-Fluor reagent (Promega) followed by a 30-minute incubation at 37° C. and quantification of the fluorescence signal (Ex400/Em505). Subsequently, luciferase expression was assayed by the addition of 25 μL of ONE-Glo reagent (Promega) followed by a 10-minute incubation at room temperature and quantification of the luminescence signal. The luminescence signal was normalized to the fluorescence signal to correct for any loss in cell viability over the 24-hour compound incubation period. The percentage of inhibition of normalized luminescence signal, indicative of compound-mediated inhibition of TEAD-dependent transcription, at individual compound concentrations relative to high and low controls was calculated. The data were analyzed by using nonlinear regression to generate IC50 values for individual compounds.

Where two headings read alike, the source gives them in different places.

For `CS(=O)(=O)c1nc(C(=O)N2CCc3c(cccc3Oc3ccc(C(F)(F)F)cc3F)C2)c[nH]1` [O-0118, (5-(2-fluoro-4-(trifluoromethyl)phenoxy)-3,4-dihydroisoquinolin-2(1H)-yl)(2-(methylsulfonyl)-1H-imidazol-4-yl)methanone], where the note is “Homo sapiens, MSTO-211H, 24 h”, the IC50 is 0.001 to 10 µM.

Regarding `O=C(c1c[nH]c(S(=O)(=O)C2CCC2)n1)N1CCc2c(cccc2Oc2ccc(C(F)(F)F)cc2)C1` [O-0125, (2-(cyclobutylsulfonyl)-1H-imidazol-4-yl)(5-(4-(trifluoromethyl)phenoxy)-3,4-dihydroisoquinolin-2(1H)-yl)methanone], under “Homo sapiens, MSTO-211H, 24 h”, the IC50 fell in the range of 0.001 to 10 µM.

Consider `CCS(=O)(=O)c1nc(C(=O)N2CCc3c(cccc3Nc3ccc(C(F)(F)F)cc3)C2)c[nH]1` [O-0012, (2-(ethylsulfonyl)-1H-imidazol-4-yl)(5-((4-(trifluoromethyl)phenyl)amino)-3,4-dihydroisoquinolin-2(1H)-yl)methanone], for which, under “Homo sapiens, MSTO-211H, 24 h”, the IC50 is > 100 µM.

Regarding `CS(=O)(=O)c1nc(C(=O)N2CCc3ccc(Nc4ccc(C(F)(F)F)cn4)cc3C2)c[nH]1` [O-0015, (2-(methylsulfonyl)-1H-imidazol-4-yl)(7-((5-(trifluoromethyl)pyridin-2-yl)amino)-3,4-dihydroisoquinolin-2(1H)-yl)methanone], under “Homo sapiens, MSTO-211H, 24 h”, the half-maximal inhibitory concentration (IC50) lay within 10 to 100 µM.

For `Cn1cc(C(=O)N2CCc3c(cccc3Nc3ccc(C(F)(F)F)cc3)C2)nc1S(C)(=O)=O` [O-0007, (1-methyl-2-(methylsulfonyl)-1H-imidazol-4-yl)(5-((4-(trifluoromethyl)phenyl)amino)-3,4-dihydroisoquinolin-2(1H)-yl)methanone], where the note is “Homo sapiens, MSTO-211H, 24 h”, the IC50 is 0.001 to 10 µM.

With `CS(=O)(=O)c1nc(C(=O)N2CCc3cc(Oc4ccc(C(F)(F)F)cc4)ccc3C2)c[nH]1` [O-0073, (2-(methylsulfonyl)-1H-imidazol-4-yl)(6-(4-(trifluoromethyl)phenoxy)-3,4-dihydroisoquinolin-2(1H)-yl)methanone], under “Homo sapiens, MSTO-211H, 24 h”, the IC50 is 10 to 100 µM.

As to `CNS(=O)(=O)c1nc(C(=O)N2CCc3cc(Oc4ccc(C(F)(F)F)cc4)ccc3C2)c[nH]1` [O-0111, N-methyl-4-(6-(4-(trifluoromethyl)phenoxy)-1,2,3,4-tetrahydroisoquinoline-2-carbonyl)-1H-imidazole-2-sulfonamide], where the note is “Homo sapiens, MSTO-211H, 24 h”, the concentration for half-maximal inhibition (IC50) lay within 0.001 to 10 µM.

Take `CCS(=O)(=O)c1nc(C(=O)N2CCc3cc(Oc4ccc(C(F)(F)F)cc4)ccc3C2)c[nH]1` [O-0079, (2-(ethylsulfonyl)-1H-imidazol-4-yl)(6-(4-(trifluoromethyl)phenoxy)-3,4-dihydroisoquinolin-2(1H)-yl)methanone]: the IC50 (Homo sapiens, MSTO-211H, 24 h) lay within 0.001 to 10 µM.

In the case of `CCS(=O)(=O)c1nc(C(=O)N2CCc3c(ncnc3Oc3ccc(C(F)(F)F)cc3F)C2)c[nH]1` [O-0116, (2-(ethylsulfonyl)-1H-imidazol-4-yl)(4-(2-fluoro-4-(trifluoromethyl)phenoxy)-5,8-dihydropyrido[3,4-d]pyrimidin-7(6H)-yl)methanone], the half-inhibitory concentration (IC50) is 0.001 to 10 µM.

For `Cn1c(C(=O)N2CCc3c(cccc3Nc3ccc(C(F)(F)F)cn3)C2)cnc1S(C)(=O)=O` [O-0006, (1-methyl-2-(methylsulfonyl)-1H-imidazol-5-yl)(5-((5-(trifluoromethyl)pyridin-2-yl)amino)-3,4-dihydroisoquinolin-2(1H)-yl)methanone], where the note is “Homo sapiens, MSTO-211H, 24 h”, the IC50 was in the range of 0.001 to 10 µM.

With `O=C(c1c[nH]c(S(=O)(=O)C2CCC2)n1)N1CCc2c(cccc2Nc2ccc(C(F)(F)F)cc2)C1` [O-0126, (2-(cyclobutylsulfonyl)-1H-imidazol-4-yl)(5-((4-(trifluoromethyl)phenyl)amino)-3,4-dihydroisoquinolin-2(1H)-yl)methanone], the IC50 (Homo sapiens, MSTO-211H, 24 h) lay in the range of 0.001 to 10 µM.

For `Cn1c(C(=O)N2CCc3c(cccc3Nc3ccc(C(F)(F)F)cc3)C2)cnc1S(C)(=O)=O` [O-0008, (1-methyl-2-(methylsulfonyl)-1H-imidazol-5-yl)(5-((4-(trifluoromethyl)phenyl)amino)-3,4-dihydroisoquinolin-2(1H)-yl)methanone], the IC50 (Homo sapiens, MSTO-211H, 24 h) is 0.001 to 10 µM.
